Data set [1] concerns the target recombinant 0N4R Tau fibrils (Homo sapiens (Human), UniProt P10636). Nature of the data set: 3H-THK5117 competition binding to tau fibrils in vitro. The settings on record: competition with 3 nM [3H]-THK5117, 0N4R tau fibrils, 1 h, 22° C.; average if run more than once. Here is the method: ^3H-THK5117 Competition Binding to Tau Fibrils In Vitro
Preparation of recombinant 0N4R Tau fibrils was performed as previously described in Morozova, O. A., Biochemistry (2013), Vol., 52(40), pages 6960-6967. Competition binding experiments to 0N4R Tau fibrils were performed by incubating increasing concentrations [10^−10-10^−6 M] of the Example compounds of the invention, or the known tau specific ligand PBB3 (PBB3 was synthesized as previously described in M. Maruyama, et al, Neuron 2013, 79, 1094-1108) or MK6240 (Novandi Chemistry AB), in the presence of 3 nM of the known tau ligand [^3H]-THK5117 (Novandi Chemistry) and 0.2 mM 0N4R tau fibrils in binding buffer (50 mM Tris-HCl, pH 7.4, 0.1% BSA) for 1 h in the dark, and at 22° C. The incubation was terminated by filtration through a Whatman GF/B glass filter (Whatman International, Kent, UK) using a Brandel cell harvester. The filter was then washed rapidly four times with 3 mL of ice-cold wash buffer (5 mM Tris-HCl, 0.25 mM NaCl, 5% EtOH), and equilibrated for 1 h in scintillation vials containing 5 mL of Ultima Gold scintillation fluid before being analysed using a Liquid Scintillation Analyzer.
The results are shown in Table 2 in the column labeled “Tau IC50”. […] Biological Assay Results

Data set [2] in a line: Mouse intravenous (IV) pharmacokinetic study of plasma and brain exposure with bioanalysis. Particulars: for Kp / half-life: male, NMRI, iv, 1 mg/kg; for Kp: brain/plasma. It is filed as in vivo. Here is the method: A pharmacokinetic study of plasma and brain exposure in mice after IV administration of Example Compound 1 or Comparative Example Compound 1 was carried out following the protocol described in Loryan, I., et al, Pharm Res (2014) 31: 2203-2219. Comparative Example Compound 1 is 2-{2-Fluoro-6-[4-(hydroxymethyl)piperidin-1-yl]pyridin-3-yl}-1H-indol-5-ol, and has the following structure:
The experimental protocol and bioanalysis described in Loryan, I., et al, Pharm Res (2014) 31: 2203-2219 was followed to measure mouse plasma and brain exposure. Table 3 below provides specific details of the mice, sampling, dose, formulation, method and additional information regarding the experiment, and Table 4 below provides further information regarding the sampling in the experiment.

The conditions of data set [3]: cited from earlier work.
Where [4] appears, read: mouse, mouse, IV 1 mg/kg, read-out: Total concentration brain:plasma ratio.
Setting [5] is: mouse, mouse, IV 1 mg/kg, read-out: Unbound concentration brain:plasma ratio.
[6] abbreviates: mouse, mouse, IV 1 mg/kg, read-out: unbound AUC in brain as % of the plasma AUC.
Where [7] appears, read: brain, mouse NMRI male, IV 1 mg/kg, mean n=3.
The mark [8] stands for this setting: plasma, mouse NMRI male, IV 1 mg/kg, mean n=3.

Read-outs that look alike come from different tables or passages of the source.

Chain of recombinant 0N4R Tau fibrils (P10636 other isoform, or with tags, fused parts or gaps): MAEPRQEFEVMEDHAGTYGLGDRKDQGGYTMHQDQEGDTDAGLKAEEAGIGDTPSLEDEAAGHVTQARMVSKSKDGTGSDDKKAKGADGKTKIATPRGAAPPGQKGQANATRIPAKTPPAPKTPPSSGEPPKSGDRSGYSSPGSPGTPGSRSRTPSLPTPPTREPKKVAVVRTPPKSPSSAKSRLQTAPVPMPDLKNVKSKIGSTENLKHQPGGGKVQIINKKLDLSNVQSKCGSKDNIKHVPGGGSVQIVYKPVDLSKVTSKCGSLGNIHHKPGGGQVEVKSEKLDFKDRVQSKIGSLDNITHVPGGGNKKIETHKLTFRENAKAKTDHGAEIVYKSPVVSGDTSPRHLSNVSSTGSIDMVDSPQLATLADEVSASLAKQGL

Usually IC50 stands for the point on the concentration scale where inhibition reaches its midpoint. As for `CO[C@@H]1CCCN(c2ccc(-c3cc4cc(O)ccc4[nH]3)c(F)n2)C1` [Example Compound 2, 2-{2-Fluoro-6-[(3R)-3-methoxypiperidin-1-yl]pyridin-3-yl}-1H-indol-5-ol], the IC50 in data set [1] stood at 0.0318 µM.
For `OCC1CCN(c2ccc(-c3cc4cc(O)ccc4[nH]3)c(F)n2)CC1` [Comparative Example Compound 1, 2-{2-Fluoro-6-[4-(hydroxymethyl)piperidin-1-yl]pyridin-3-yl}-1H-indol-5-ol, reference compound], the “Total concentration AUC” value in data set [2] (brain, mouse, IV 1 mg/kg) was found to be 15 ng·h/g; in data set [2] (plasma, mouse, IV 1 mg/kg), 151 ng·h/g. The “Unbound concentration AUC” value in data set [2] (brain, mouse, IV 1 mg/kg) amounted to 0.030 ng·h/g; in data set [2] (plasma, mouse, IV 1 mg/kg), 14 ng·h/g. In addition, the Kp in data set [2] (setting [4]) was 0.1; in data set [2] (setting [5]) it was 0.002; in data set [2] (setting [6]), about 0.002.
`[11CH3]Nc1ccc(/C=C/C=C/c2nc3ccc(O)cc3s2)cn1` [^11C-PBB3]: the “radiochemical purity after exposure to fluorescent light” value in data set [3] (1 min after exposure) is 77%; in data set [3] (from 10 to 60 min after exposure), “approximately 50%”.
By Cmax is commonly meant the maximum level reached in the sampled fluid or tissue. In general, Tmax refers to the time at which the peak concentration occurs. Broadly, the AUC(0-inf) is total exposure, with the tail of the curve extrapolated. Lower therefore signals low exposure. In general, AUC(0-t) refers to exposure summed from dosing to a finite time, without extrapolation to infinity. A high value points to more exposure. For orientation: MRT means a mean duration of stay, worked out from the concentration-time curve. Broadly, the Vd is the apparent volume that relates the amount in the body to the concentration in plasma or blood. Read a low Vd as confinement near the circulation. Usually clearance stands for the rate of elimination divided by the concentration. Low readings indicate inefficient removal, high ones efficient removal. Take `CO[C@H]1CCCN(c2ccc(-c3cc4cc(O)ccc4[nH]3)c(F)n2)C1` [Example Compound 1, 2-{2-Fluoro-6-[(3S)-3-methoxypiperidin-1-yl]pyridin-3-yl}-1H-indol-5-ol]: in data set [2] (setting [7]), the AUCinf amounted to 457.8 ng·h/g, the AUClast is 454.6 ng·h/g, the Cmax stood at 1190 ng/g and the Tmax came to 1.8 min. Moreover, in data set [2] (brain, mouse, IV 1 mg/kg), the “Total concentration AUC” value came to 457.8 ng·h/g and the “Unbound concentration AUC” value stood at 0.09 ng·h/g. The half-life in data set [2] (mouse, brain, brain, following IV dosing, mouse, read-out: elimination half-life (converted)) is about 18 min. For the same molecule, the half-life in data set [2] (mouse, brain, brain, mouse NMRI male, IV 1 mg/kg, mean n=3, read-out: t1/2 (converted)) is 18 min. Also, the Kp in data set [2] (setting [4]) turned out to be 1.7. Besides, the Kp in data set [2] (setting [5]) was 0.56. The Kp in data set [2] (setting [6]) was about 0.56. Moreover, in data set [2] (mouse, plasma, plasma, mouse NMRI male, IV 1 mg/kg, mean n=3, read-out: t1/2 (converted)), the half-life was 24 min. Besides, in data set [2] (mouse, IV 1 mg/kg), the “adverse events in the mice during the study” value is listed as “No adverse events were observed”. Besides, in data set [2] (setting [8]), the AUC(0-inf) worked out at 267 ng·h/mL, the AUC(0-t) amounted to 264 ng·h/mL, the C0 is 884 ng/mL and the Cmax stood at 782 ng/mL. Further, in data set [2] (setting [8]), the MRT worked out at 18 min, the Tmax was determined as 1.8 min, the Vd came to 1.2 L/kg and the clearance was 62.4 mL/min/kg. In addition, in data set [2] (plasma, mouse, IV 1 mg/kg), the “Total concentration AUC” value stood at 267.1 ng·h/g and the “Unbound concentration AUC” value is 0.16 ng·h/g. Also, the IC50 in data set [1] came to 0.0017 µM.

Values taken from patent US12304901B2, “Selective ligands for tau aggregates” (Sentonix, Inc., priority 2022, dated 2025).
